Data taken from US20170190726A9, “PRODRUG FOR RELEASE OF CISPLATIN AND CYCLOOXYGENASE INHIBITOR” (priority 2013, published 2017).

Columns and labels:
IL-6 = assay: ELISA of IL-6 in LPS-stimulated RAW 264.7 macrophages; format: cell-based, mouse
Protocol: RAW 264.7 cells were plated at a concentration of 10,000 cells/mL in 96 plates and allowed to grow overnight. For preventative anti-inflammatory treatment, Platin-A (10 μM), aspirin (10 μM), cisplatin (10 μM) and an equimolar ratio of cisplatin and aspirin (10 μM each) was incubated with the RAW cells for 6 h. Lipopolysaccharide (LPS) (100 ng/mL) was added and the cells were further incubated for 12 h. For therapeutic anti-inflammatory treatment, LPS (100 ng/mL) was added to the RAW cells and incubated for 6 h. Platin-A (10 μM), aspirin (10 μM), cisplatin (10 μM) and an equimolar ratio of cisplatin and aspirin (10 μM each) was then added to the cells and incubated for 12 h. ELISA was performed on the supernatants against the cytokines interleukin (IL)-6, IL-10, and TNF-α. Briefly, antibody coated plates were blocked with 10% FBS in PBS for 1 h at room temperature followed by 3 washes. RAW cell supernatants were incubated on the plates for 2 h at room temperature. This was immediately followed by washings and sequential incubations with the cytokine-biotin conjugate and streptavidin working solution. Finally, the substrate reagent containing 3,3′,5,5′-tetramethylbenzidine (100 μL) was added to each well, incubated for 15 min, the reaction was stopped by adding 50 μL H2SO4 (0.1 M). The absorbance was recorded at 450 nm using a BioTek Synergy HT well plate reader.

[1] = Aspirin release from Platin-A by RP-HPLC after sodium ascorbate reduction; format: physicochemical; details: acetonitrile-water, HPLC 280 nm
Protocol: The remarkable anticancer activity of cisplatin is due to its inherent proficiency to bind with the N7 position of guanine bases leading to DNA damage. To mimic the intracellular reduction of Platin-A to cisplatin and activity of generated cisplatin with DNA, Platin-A was reduced with sodium ascorbate in the presence of 2′-deoxyguanosine 5′-monophosphate sodium salt hydrate (5′-GMP) as a truncated version of DNA, and the products were analyzed by matrix-assisted laser desorption/ionization (MALDI)-time of flight (TOF)-mass spectrometry (MS). […] Binding studies with 5′-GMP provided strong evidence that cisplatin released upon reduction of Platin-A will interact with nuclear DNA efficiently. The release of the other drug, aspirin from Platin-A was analyzed by HPLC (FIG. 8). […] As time progress, formation of increasing amounts of salicylic acid, the main metabolite of aspirin was detected (FIG. 8). This observation supported the release of aspirin moiety from Platin-A in its pristine form or its final metabolite form for COX inhibitory and anti-inflammatory activities, respectively.
The ability of Platin-A to release aspirin under reducing atmosphere was studied RP-HPLC. Reduction of Platin-A (2.97 mg, 2 mM) was carried out using sodium ascorbate (5.28 mg, 10 mM) in acetonitrile-water (1:2, 3 mL) and reduction product was examined by HPLC. […]

ovine COX-1 = biological target: T1, ovine COX-1 (Ovis aries, UniProt P05979); assay: In vitro COX inhibition assay (EIA), COX-1; format: biochemical; details: ovine COX-1, EIA, 0.25-1.5 mM, aspirin as positive control
T1 construct: purchased Cayman Chemicals 560101
T1 sequence (P05979 25-600): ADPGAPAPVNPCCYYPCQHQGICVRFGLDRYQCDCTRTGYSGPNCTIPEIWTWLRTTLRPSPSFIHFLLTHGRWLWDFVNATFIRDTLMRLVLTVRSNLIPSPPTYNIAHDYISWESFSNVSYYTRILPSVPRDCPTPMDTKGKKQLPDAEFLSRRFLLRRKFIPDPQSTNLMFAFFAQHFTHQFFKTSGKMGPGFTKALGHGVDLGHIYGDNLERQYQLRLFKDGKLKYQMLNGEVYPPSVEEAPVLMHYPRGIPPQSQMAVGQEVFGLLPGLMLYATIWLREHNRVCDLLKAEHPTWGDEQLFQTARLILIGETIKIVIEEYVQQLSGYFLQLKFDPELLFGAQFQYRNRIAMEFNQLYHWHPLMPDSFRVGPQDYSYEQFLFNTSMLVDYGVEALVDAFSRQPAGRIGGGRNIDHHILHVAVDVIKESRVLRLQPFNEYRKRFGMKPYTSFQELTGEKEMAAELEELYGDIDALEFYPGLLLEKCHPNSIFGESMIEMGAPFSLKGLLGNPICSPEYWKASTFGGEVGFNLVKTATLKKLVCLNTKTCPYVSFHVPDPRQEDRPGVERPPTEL
Protocol: An enzyme immunoassay (EIA) kit from Cayman Chemicals (catalogue number 560101) was used to assess the ability of Platin-A to inhibit ovine COX-1 and COX-2. COX inhibition assay was performed as per the manufacturer protocol. All stock solutions were prepared following manufactures instruction. This inhibition assay was carried out using a two-step process: COX reaction and EIA. COX reaction involved preparation of following samples.
(i) Background samples: COX-1 and COX-2 were inactivated by transferring 20 μL of each enzyme to an eppendorf tube and placing the tube in boiling water for 3 min. […] (ii) COX-1 or COX-2 100% initial activity samples: 950 μL of reaction buffer, 10 μL of heme, 10 μL of COX-1 or COX-2, and 20 μL of reaction buffer were added to each test tube. (iii) COX-1 or COX-2 inhibitor samples: 950 μL of reaction buffer, 10 μL of heme, 10 μL of COX-1 or COX-2 and 20 μL of COX-1 and COX-2 inhibitors under investigation, aspirin and Platin-A of different concentrations (0.25, 0.5, 0.75, 1, and 1.5 mM for COX-1; 0.75, 1, 1.25, 1.5, and 2 mM for COX-2) were added to each test tube.
All the samples were incubated for 5 min in water bath at 37° C. […]
For EIA, 100 μL of EIA buffer was added to non-specific binding well and 50 μL of EIA buffer to maximum binding wells. […] Absorbance was recorded at a wavelength of 410 nm using a plate reader.

**Q.** For `CC(=O)Oc1ccccc1C(=O)[O][Pt]([NH2])([NH2])([OH])([Cl])[Cl]` [Platin-A], which “LPS-induced IL-6 production” value (IL-6; preventive: pretreatment 10 μM 6 h, then LPS 12 h) is on record?
**A.** significantly inhibited

**Q.** What about the “levels of IL-6” value (IL-6; therapeutic: LPS activated macrophages then 10 μM for 12 h) of the same compound?
**A.** significantly reduced

**Q.** What about the “release of aspirin upon reduction” value [1] of the same compound?
**A.** initially produces aspirin upon reduction

**Q.** What about the COX-1 inhibition (ovine COX-1) of the same compound?
**A.** very similar inhibition of both COX-1 and COX-2 as shown by aspirin
